Laboratory results reported in patent US10337049B2, “Universal methylation profiling methods” (THE TRUSTEES OF COLUMBIA UNIVERSITY IN THE CITY OF NEW YORK, priority 2013, dated 2019).
Values belong to the compound of their own block, whether it stands above or below them.

Assays:
[1] = tested on: pCa17 plasmid; assay: in vivo functional assay / restriction protection assay of M.SssI variants (HpaII digestion of isolated plasmid); settings: 200 ng plasmid, 1 U HpaII, 37° C., 1 hour, agarose gel
[2] = Photo-irradiation of 5 position-modified deoxycytidine at about 300 nm, HPLC/UV/MS monitoring; type: physicochemical; settings: for photochemical conversion to U analog on photo-irradiation: about 300 nm, aqueous solution, up to 12 h
Protocol: Photo-irradiation of 5-All-OMC at about 300 nm was then conducted in aqueous solution for up to 12 h, and the reaction products separated and monitored by HPLC and UV absorption.
Both C and 5-methyl-C remain intact after photo-irradiation under the same conditions. […] To further verify this conversion, 5-All-OMU was synthesized and characterized. […] The photochemically generated 5-All-OMU was also characterized by ^1HNMR.

[3] = Photo-irradiation of 16mer oligonucleotide, single base extension-MS analysis; type: physicochemical; settings: primer 5′-TGCCGCACTC-3′, MS of elongated primer
Protocol: After HPLC purification, the modified 16mer was characterized by MALDI-TOF MS yielding a peak with MW of 5001, equal to the calculated mass. Then photo-irradiation of oligo [NT] ID NO: 1) was conducted to convert C* to a U analog. The outcome for conversion of C* in DNA was detected by using single base extension-MS analysis (FIG. 7). In this analysis, the photo-irradiated oligonucleotide was annealed with a primer […] 2964) (SEQ ID NO: 2), then incubated with ddNTPs and DNA polymerase. With the aid of DNA polymerase, one of the 4 ddNTPs can be selectively incorporated onto the 3' end of the primer. Photo-chemistry induced conversion of C to U should be able to direct the incorporation of ddA, resulting in an elongated primer with a MW of 3261, otherwise ddG should be incorporated giving an elongated primer of MW 3277. […] In the control experiment, photo-irradiation of the unmodified counterpart [NT] ID NO: 3) was conducted under the same conditions. […] We also measured possible photoirradiation-induced DNA damage. Under the conditions we used (300 nm, over 10 h) no DNA damage was observed.

[4] = Laser flash photolysis, triplet energy transfer from thioxanthone; settings: 355 nm pulsed laser, argon saturated acetonitrile, quencher 0 to 0.25 mM
[5] = Photoirradiation of 5-PhAll-OMC with 350 nm light in the presence of triplet sensitizer thioxanthone, HPLC analysis; type: physicochemical; settings: 20 min
Source text: 5-PhAll-OMC was irradiated with 350 nm light in the presence of the triplet photosensitizer thioxanthone (TX).
The new product was found 1 mass unit higher than the starting material 5-PhAll-OMC, indicating possible U analog was generated from 5-PhAll-OMC. […] The ^13C NMR spectra, shown in FIG. 27, unambiguously confirm the formation of a [2+2] cycloadduct in either straight or cross configuration.

Compound: wild-type: wild type CpG specific DNA methyltransferase M.SssI expressed from pCAL7
resistance of isolated M.SssI expressing plasmid to HpaII digestion [1]: completely resistant

photochemical conversion to U analog on photo-irradiation [2]: remain intact
ddNTP incorporated in single base extension after photo-irradiation of template [3]: ddATP
Compound: Nc1cc[nH]c(=O)n1 [C, Cytosine]

Compound: 5′-TACGACGAGTGCGGCA-3′: unmodified counterpart 16mer, control (DNA, backbone not given here)
ddNTP incorporated in single base extension after photo-irradiation of template [3]: ddGTP

photochemical conversion to U analog on photo-irradiation [2]: high efficiency
HPLC profile during photo-irradiation ([2]; after 3 h of irradiation): the main peak is the starting material
HPLC profile during photo-irradiation, starting material ([2]; after 12 h photo-irradiation): mostly consumed
Compound: C=CCOCc1cn([C@H]2C[C@H](O)[C@@H](CO)O2)c(=O)nc1N [5-All-OMC, 5-allyloxymethyl-dC]

Compound: OCC=Cc1ccccc1 [cinnamyl alcohol]
rate constant of quenching of thioxanthone triplet (triplet energy transfer), kq [4]: 7.8e+09 M⁻¹ s⁻¹

photochemical conversion to U analog on photo-irradiation [2]: remain intact
Compound: Cc1c[nH]c(=O)nc1N [5-methyl-C, 5-methylcytosine]

Compound: O=c1c2ccccc2sc2ccccc12 [TX, thioxanthone]
concentration of the sensitizer after photoirradiation [5]: remained unchanged
